Laboratory results as given in patent US11180504B2 (ORCHID PHARMA LTD., priority 2016, dated 2021).
Converted amounts (≈) assume the structure as drawn.

Key:
[1] = test system: carbapenemase producing K. pneumoniae; test: MIC by broth micro-dilution (CLSI), carbapenemase producing K. pneumoniae; format: cell-based, Klebsiella pneumoniae; settings: Klebsiella pneumoniae, ATCCBAA1705, KPC-2 K. pneumoniae ATCC BAA-1705; read-out: MIC
[2] = test system: carbapenem sensitive Pseudomonas aeruginosa; test: MIC by broth micro-dilution (CLSI), carbapenem sensitive P. aeruginosa; format: cell-based; settings: Pseudomonas aeruginosa, ATCC27853, Meropenem susceptible P. aeruginosa ATCC27853; read-out: MIC
[3] = test system: carbapenem sensitive Escherichia coli; test: MIC by broth micro-dilution (CLSI), carbapenem sensitive E. coli; format: cell-based; settings: Escherichia coli, ATCC25922, ESBL −ve E. coli ATCC25922; read-out: MIC
[4] = test system: methicillin-sensitive Staphylococcus aureus; test: MIC by broth micro-dilution (CLSI), methicillin-sensitive S. aureus; format: cell-based; settings: Staphylococcus aureus, ATCC 29213 / MSSA, MSSA S. aureus ATCC29213; read-out: MIC

MIC [1] [µg/mL] | MIC [2] [µg/mL] | MIC [3] [µg/mL] | MIC [4] [µg/mL] | SMILES
16 (≈ 36.7 µM) | > 128 | 1 (≈ 2.3 µM) | 4 (≈ 9.18 µM) | C[C@H]([C@H]1C(=O)N2C(C(=O)O)=C(S[C@@H]3CN[C@H](C(=O)N(C)C)C3)[C@H](C)[C@H]12)n1ncnn1 [Example 313, (4R,5S,6S)-6-((R) - 1-(2H-tetrazol-2-yl)ethyl)-3-((3S,5S)-5-(dimethylcarbamoyl)pyrrolidin-3-ylthio)-4-methyl-7-oxo-1-azabicyclo[3.2.0]hept-2-ene-2-carboxylic acid]
2 (≈ 3.75 µM) | 4 (≈ 7.51 µM) | 0.25 (≈ 0.469 µM) | 4 (≈ 7.51 µM) | C[C@@H](NC(=O)Cn1cncn1)[C@H]1C(=O)N2C(C(=O)O)=C(S[C@@H]3CN[C@H](C(=O)N4CCNCC4)C3)[C@H](C)[C@H]12 [Example 314, (4R,5S,6R)-6-((R) - 1-(2-(1H-tetrazol-1-yl)acetamido)ethyl)-4-methyl-7-oxo-3-((3S,5S)-5-(piperazine-1-carbonyl)pyrrolidin-3-ylthio) - 1-azabicyclo[3.2.0]hept-2-ene-2-]
2 (≈ 3.94 µM) | 64 (≈ 126 µM) | 0.125 (≈ 0.246 µM) | 4 (≈ 7.88 µM) | C[C@@H](NC(=O)Cn1nnc(N)n1)[C@H]1C(=O)N2C(C(=O)O)=C(S[C@@H]3CN[C@H](C(=O)N(C)C)C3)[C@H](C)[C@H]12 [Example 315, (4R,5S,6R)-6-((R) - 1-(2-(5-amino-2H-tetrazol-2-yl)acetamido)ethyl)-3-((3S,5S)-5-(dimethylcarbamoyl)pyrrolidin-3-ylthio)-4-methyl-7-oxo-1-azabicyclo[3.2.0]hept-2-ene-2-carboxylic acid]
16 (≈ 29.2 µM) | 16 (≈ 29.2 µM) | 0.25 (≈ 0.456 µM) | 4 (≈ 7.29 µM) | C[C@@H](NC(=O)Cn1nnc(N)n1)[C@H]1C(=O)N2C(C(=O)O)=C(S[C@@H]3CN[C@H](C(=O)N4CC[C@@H](N)C4)C3)[C@H](C)[C@H]12 [Example 316, (4R,5S,6R)-6-((R) - 1-(2-(5-amino-2H-tetrazol-2-yl)acetamido)ethyl)-3-((3S,5S)-5-((R)-3-aminopyrrolidine-1-carbonyl)pyrrolidin-3-ylthio)-4-methyl-7-oxo-1-azabicyclo[3.2.0]hept-2-ene-2-carboxylic acid]
8 (≈ 13 µM) | 128 (≈ 208 µM) | 0.5 (≈ 0.812 µM) | 2 (≈ 3.25 µM) | C[C@@H](NC(=O)Cn1nc(C(F)(F)F)nc1N)[C@H]1C(=O)N2C(C(=O)O)=C(S[C@@H]3CN[C@H](C(=O)N4CC[C@@H](N)C4)C3)[C@H](C)[C@H]12 [Example 317, (4R,5S,6R)-6-((R) - 1-(2-(5-amino-3-(trifluoromethyl) - 1H-1,2,4-triazol-1-yl)acetamido)ethyl)-3-((3S,5S)-5-((R)-3-aminopyrrolidine-1-carbonyl)pyrolidin-3-ylthio)-4-methyl-7-oxo-1-azabicyclo[3.2.0]hept-2-ene-2-carboxylic acid]
128 (≈ 246 µM) | > 128 | 2 (≈ 3.84 µM) | 16 (≈ 30.7 µM) | C[C@@H](NC(=O)C(C)(C)n1cnnn1)[C@H]1C(=O)N2C(C(=O)O)=C(S[C@@H]3CN[C@H](C(=O)N(C)C)C3)[C@H](C)[C@H]12 [Example 318, (4R,5S,6R)-3-((3S,5S)-5-(dimethylcarbamoyl)pyrrolidin-3-ylthio)-4-methyl-6-((R) - 1-(2-methyl-2-(1H-tetrazol-1-yl)propanaraido)ethyl)-7-oxo-1-azabicyclop[3.2.0]hept-2-ene-2-carboxylic acid]
1 (≈ 2.3 µM) | 32 (≈ 73.5 µM) | 0.25 (≈ 0.574 µM) | 2 (≈ 4.59 µM) | C[C@H]([C@H]1C(=O)N2C(C(=O)O)=C(S[C@@H]3CN[C@H](C(=O)N(C)C)C3)[C@H](C)[C@H]12)n1cnnn1 [Example 319, (4R,5S,6S)-6-((R)-1-(1H-tetrazol-1-yl)ethyl)-3-((3S,5S)-5-(dimethylcarbamoyl)pyrrolidin-3-ylthio)-4-methyl-7-oxo-1-azabicyclo[3.2.0]hept-2-ene-2-carboxylic acid]
4 (≈ 6.96 µM) | 128 (≈ 223 µM) | 1 (≈ 1.74 µM) | 2 (≈ 3.48 µM) | C[C@@H](NC(=O)Cn1nc(C(F)(F)F)nc1N)[C@H]1C(=O)N2C(C(=O)O)=C(S[C@@H]3CN[C@H](C(=O)N(C)C)C3)[C@H](C)[C@H]12 [Example 320, (4R,5S,6R)-6-((R) - 1-(2-(5-amino-3-(trifluoromethyl) - 1H-1,2,4-triazol-1-yl)acetamido)ethyl)-3-((3S,5S)-5-(dimethylcarbamoyl)pyrrolidin-3-ylthio)-4-methyl-7-oxo-1-azabiayclo[3.2.0]hept-2-ene-2-carboxylic acid]
8 (≈ 14.9 µM) | > 128 | 1 (≈ 1.86 µM) | 2 (≈ 3.71 µM) | C[C@@H](NC(=O)CSc1nnnn1C)[C@H]1C(=O)N2C(C(=O)O)=C(S[C@@H]3CN[C@H](C(=O)N(C)C)C3)[C@H](C)[C@H]12 [Example 321, (4R,5S,6R)-3-((3S,5S)-5-(dimethylcirbamoyl)pyrrolidin-3-ylthio)-4-methyl-6-((R) - 1-(2-(1-methyl-1H-tetrazol-5-ylthio)acetamido)ethyl)-7-oxo-1-azabicyclo[3.2.0]hept-2-ene-2-carboxylic acid]
16 (≈ 30.7 µM) | > 128 | 2 (≈ 3.83 µM) | 16 (≈ 30.7 µM) | C[C@@H](NC(=O)[C@@H](N)Cn1cnnn1)[C@H]1C(=O)N2C(C(=O)O)=C(S[C@@H]3CN[C@H](C(=O)N(C)C)C3)[C@H](C)[C@H]12 [Example 322, (4R,5S,6R)-6-((R) - 1-((S)-2-amino-3-(1H-tetrazol-1-yl)propanamido)ethyl)-3-((3S,5S)-5-(dimethylcarbamoyl)pyrrolidin-3-ylthio)-4-methyl-7-oxo-1-azabicyclo[3.2.0]hept-2-ene-2-carboxylic acid]
8 (≈ 15.3 µM) | > 128 | 2 (≈ 3.83 µM) | 16 (≈ 30.7 µM) | C[C@@H](NC(=O)[C@@H](N)Cn1ncnn1)[C@H]1C(=O)N2C(C(=O)O)=C(S[C@@H]3CN[C@H](C(=O)N(C)C)C3)[C@H](C)[C@H]12 [Example 323, (4R,5S,6R)-6-((R) - 1-((S)-2-amino-3-(2H-tetrazol-2-yl)propanamido)ethyl)-3-((3S,5S)-5-(dimethylcarbamoyl)pyrrolidin-3-ylthio)-4-methyl-7-oxo-1-azabicyclo[3.2.0]hept-2-ene-2-carboxylic acid]
4 (≈ 7.5 µM) | 4 (≈ 7.5 µM) | 0.5 (≈ 0.937 µM) | 4 (≈ 7.5 µM) | C[C@@H](NC(=O)Cn1cnnn1)[C@H]1C(=O)N2C(C(=O)O)=C(S[C@@H]3CN[C@H](C(=O)N4CC[C@H](N)C4)C3)[C@H](C)[C@H]12 [Example 324]
64 (≈ 113 µM) | > 128 | 4 (≈ 7.07 µM) | 8 (≈ 14.1 µM) | CO/N=C(\C(=O)N[C@H](C)[C@H]1C(=O)N2C(C(=O)O)=C(S[C@@H]3CN[C@H](C(=O)N(C)C)C3)[C@H](C)[C@H]12)c1csc(N)n1 [Example 325, (4R,5S,6R)-6-((R) - 1-((Z)-2-(2-aminothiazol-4-yl)-2-(methoxyimino)acetamido)ethyl)-3-((3S,5S)-5-(dimethylcarbamoyl)pyrrolidin-3-ylthio)-4-methyl-7-oxo-1-azabicyclo[3.2.0]hept-2-ene-2-carboxylic acid]
16 (≈ 35.5 µM) | 64 (≈ 142 µM) | 1 (≈ 2.22 µM) | 2 (≈ 4.44 µM) | C[C@H]([C@H]1C(=O)N2C(C(=O)O)=C(S[C@@H]3CN[C@H](C(=O)N(C)C)C3)[C@H](C)[C@H]12)n1nnc(N)n1 [Example 326, (4R,5S,6S)-6-((R) - 1-(5-amino-2H-tetrazol-2-yl)ethyl)-3-((3S,5S)-5-(dimethylcarbamoyl)pyrrolidin-3-ylthio)-4-methyl-7-oxo-1-azabicyclo[3.2.0]hept-2-ene-2-carboxylic acid]
32 (≈ 65.1 µM) | 64 (≈ 130 µM) | 2 (≈ 4.07 µM) | 1 (≈ 2.03 µM) | C[C@H]([C@H]1C(=O)N2C(C(=O)O)=C(S[C@@H]3CN[C@H](C(=O)N4CC[C@@H](N)C4)C3)[C@H](C)[C@H]12)n1nnc(N)n1 [Example 327, (4R,5S,6S)-6-((R) - 1-(5-amino-2H-tetrazol-2-yl)ethyl)-3-((3S,5S)-5-((R)-3-aminopyrrolidine-1-carbonyl)pyrrolidin-3-ylthio)-4-methyl-7-oxo-1-azabicyclo[3.2.0]hept-2-ene-2-carboxylic acid]
4 (≈ 8.39 µM) | 32 (≈ 67.1 µM) | 2 (≈ 4.2 µM) | 4 (≈ 8.39 µM) | C[C@H]([C@H]1C(=O)N2C(C(=O)O)=C(S[C@@H]3CN[C@H](C(=O)N4CC[C@@H](N)C4)C3)[C@H](C)[C@H]12)n1cnnn1 [Example 328, (4R,5S,6S)-6-((R) - 1-(1H-tetrazol-1-yl)ethyl)-3-((3S,5S)-5-((R)-3-aminopyrrolidine-1-carbonyl)pyrrolidin-3-ylthio)-4-methyl-7-oxo-1-azabicyclo[3.2.0]hept-2-ene-2-carboxylic acid]
2 (≈ 3.64 µM) | 8 (≈ 14.6 µM) | 0.25 (≈ 0.455 µM) | 8 (≈ 14.6 µM) | C[C@@H](NC(=O)Cn1cnnn1)[C@H]1C(=O)N2C(C(=O)O)=C(S[C@@H]3CN[C@H](C(=O)N4C[C@@H](N)[C@H](O)C4)C3)[C@H](C)[C@H]12 [Example 329, (4R,5S,6R)-6-((R) - 1-(2-(1H-tetrazol-1-yl)acetamido)ethyl)-3-((3S,5S)-5-((3R,4R)-3-amino-4-hydroxypyrrolidine-1-carbonyl)pyrrolidin-3-ylthio)-4-methyl-7-oxo-1-azabicyclo[3.2.0]hept-2-ene-2-carboxylic acid]
